One experiment deals with T1, HLA-A*02:06 molecule (Homo sapiens, UniProt P04439, D140Y/D185E/D98H/E176V/E277Q/F33Y/G131W/G231S/I119V/I121R/I166T/I218V/L300P/L318F/N151K/N90K/P208A/P217A/Q86G/Q94H/R138H/R169H/T345S).
T1 construct: expressed in transfected cells; host or cells: RA2.6 cells (mouse TAP-deficient RMAS transfected with HLA-A*02:06 cDNA, Kochi University)
Kind of experiment: Binding experiment of peptide to HLA-A*02:06 molecule (RA2.6 cells, flow cytometry). The conditions noted are these: for Binding Experiment Data To A*02:06: RA2.6 cells, negative values as printed (apparently log Kd). The procedure:
The binding capacity of each peptide to the HLA-A*02:06 molecule as the product of HLA-A*02:06 gene was measured using RA2.6 cells (a cell line newly prepared at Kochi University) in which cDNA of the HLA-A*02:06 gene was introduced into RMAS as a mouse TAP (transporter associated with antigen processing)-deficient cell line.
First, the RA2.6 cells were cultured overnight at 26° C. to accumulate the HLA-A*02:06 molecules unbound to the peptide on the cell surface. Any of peptide dilution series was added thereto for binding at 26° C. for 60 minutes.
Subsequently, the mixture was cultured at 35° C. for 4 hours, resulting in the denaturation of the empty HLA-A*02:06 molecule unbound to the peptide and the loss of its steric structure. A fluorescent labeled monoclonal antibody, BB7.2, specifically recognizing a peptide-bound HLA-A*02:06 molecule, was added thereto, which was then incubated on ice for 20 minutes to stain the cells.
For orientation: In flow cytometry, cells or beads pass a laser one at a time.

In a further experiment the target is HLA-A*24:02 molecule (Homo sapiens, UniProt P04439, D101N/D140Y/D185E/E176V/E190D/F33S/G103R/G107R/I119L/I121M/I306V/K335N/L105A/L180Q/L300P/N151K/N90K/Q86E/Q94H/R106L/R138H/R89G/T104I/T345S/V100E/W191G/Y123F). Put plainly: Binding experiment of peptide to HLA-A*24:02 molecule (C1R-A24 cells, flow cytometry). To be noted: for Binding Experiment Data To A*24:02: C1R-A24 cells, on ice 4 hours, negative values as printed (apparently log Kd). The procedure:
The binding capacity of each peptide to the HLA-A*24:02 molecule as the product of HLA-A*24:02 gene was measured using C1R-A24 cells expressing the HLA-A*24:02 molecule (the cells prepared by Prof. Masafumi Takeguchi, Kumamoto University were gifted by Assoc. Prof. Masaki Yasukawa, Ehime University with permission).
First, C1R-A24 cells were exposed to acidic conditions of pH 3.3 for 30 seconds to dissociate and remove endogenous peptides which were originally bound to the HLA-A*24:02 molecule and a light chain, β2m, which was commonly associated with HLA class I molecules. After neutralization, purified β2m was added to the C1R-A24 cells, which was then added to peptide dilution series. The mixtures were each then incubated on ice for 4 hours. The 3-molecule assembly (MHC-pep) consisting of the HLA-A*24:02 molecule, the peptide, and β2 m which had been reassociated during the incubation was stained with a fluorescent labeled monoclonal antibody, 17A12, recognizing the assembly.
Subsequently, the number of MHC-pep's per C1R-A24 cell (which is proportional to the fluorescent intensity of the above fluorescent antibody) was quantitatively measured using a fluorescent cell analyzer, FACScan (Becton, Dickinson and Company). The binding dissociation constant, Kd value, between the HLA-A*24:02 molecule and the peptide was calculated from the average fluorescent intensity per cell using a method as published in a paper (Udaka et al., Immunogenetics, 51, 816-828, 2000) by the present inventor.

In a further experiment the target is HLA-A*02:01 molecule (Homo sapiens, UniProt P04439, D140Y/D185E/D98H/E176V/E277Q/G131W/G231S/I119V/I121R/I166T/I218V/L300P/L318F/N151K/N90K/P208A/P217A/Q86G/Q94H/R138H/R169H/T345S). Put plainly: Binding experiment of peptide to HLA-A*02:01 molecule (T2 cells, flow cytometry). The conditions noted are these: for Binding Experiment Data To A*02:01: T2 cells, 37° C. 4 hours, negative values as printed (apparently log Kd). The procedure:
T2 cells and purified β2m were added to stepwise dilution series of a peptide whose binding capacity was to be measured, which was then incubated at 37° C. for 4 hours.
Thereafter, the amount of fluorescence per cell was measured using a flow cytometer, and the dissociation constant, Kd value, was calculated using a method as published in a paper by the present inventor (Udaka et al., Immunogenetics, 51, 816-828, 2000).

Experiment [1] deals with CD8T cells from liver cancer patients. Put plainly: Immunity induction test of peptide (IFN-γ ELISPOT / ELISA, peptide-stimulated dendritic cells cocultured with CD8T cells). Type of experiment: cell-based, human. How it is done:
Monocytes were separated from the peripheral blood collected from a hepatocellular cancer patient according to a leukapheresis method. The separated monocytes were cultured for 6 days under addition of 800 U/ml GM-CSF and 500 U/ml IL-4. In addition, 300 U/ml TNF-α was added to the culture solution, which was then cultured for 4 days to induce mature dendritic cells. Subsequently, HSP70 mRNA was introduced thereinto by an electroporation method and thereby dendritic cells having presented an HSP70-derived antigen peptide were prepared.
Dendritic cells into which 1×10^7, 2×10^7, or 3×10^7 HSP70 mRNAs were introduced (HSP70-dendritic cells) were administered into the thigh of the hepatocellular cancer patient by subcutaneous injection (HSP70 dendritic cell therapy). The subcutaneous administration of the HSP70-dendritic cells prepared by the same method was repeated every 3 weeks. […]
Using CD8 Negative Selection Kit (from Miltenyi Biotec), CD8T cells were separated from the medium and counted. […]
A culture supernatant at day 7 after coculture of T cells with dendritic cells pulsed with each of the above peptides was diluted to the 4 levels of ×1, ×5, ×25, and ×125 to identify the dilution level falling within the limit of measurement using Human IFN-γ ELISA MAX Deluxe Set (from BioLegend Inc.). Thereafter, each sample was measured 3 times at the identified dilution level. […]
In general terms: ELISA stands for enzyme-linked immunosorbent assay.

Ends that are not written are not given here.

Take AMTKDNNLL [SEQ ID NO: 9]: the “Binding Experiment Data To A*02:06” value at HLA-A*02:06 molecule is listed as −4.276. In addition, the “Binding Experiment Data To A*24:02” value at HLA-A*24:02 molecule was −5.492. For the same sequence, on HLA-A*02:01 molecule, the “Binding Experiment Data To A*02:01” value was −5.56.

Consider AQIHDLVLV [SEQ ID NO: 12], for which, at HLA-A*02:01 molecule, the “Binding Experiment Data To A*02:01” value is −6.148.

In the case of FYPEEISSM [SEQ ID NO: 3], the “Binding Experiment Data To A*24:02” value at HLA-A*24:02 molecule is −7.664.

Regarding GVPQIEVTF [SEQ ID NO: 1], the “Binding Experiment Data To A*02:06” value at HLA-A*02:06 molecule is listed as −5.13. The “Binding Experiment Data To A*24:02” value at HLA-A*24:02 molecule is listed as −6.451.

Consider ITRARFEEL [SEQ ID NO: 10], for which, on HLA-A*02:06 molecule, the “Binding Experiment Data To A*02:06” value is −5.58. Moreover, the “Binding Experiment Data To A*02:01” value at HLA-A*02:01 molecule was −4.326.

Turning to KLLQDFFNG [SEQ ID NO: 4], the “Binding Experiment Data To A*02:06” value on HLA-A*02:06 molecule is recorded as −5.268. In addition, the “Binding Experiment Data To A*02:01” value at HLA-A*02:01 molecule is −4.959.

In the case of LLLDVAPLS [SEQ ID NO: 8], at HLA-A*02:06 molecule, the “Binding Experiment Data To A*02:06” value was −6.171. Moreover, the “Binding Experiment Data To A*02:01” value on HLA-A*02:01 molecule is recorded as −6.06.

For MVLTKMKEI [SEQ ID NO: 6], the “Binding Experiment Data To A*02:06” value at HLA-A*02:06 molecule is −5.533. For the same sequence, at HLA-A*02:01 molecule, the “Binding Experiment Data To A*02:01” value is recorded as −4.586.

Take NLLGRFELS [SEQ ID NO: 11]: the “Binding Experiment Data To A*02:06” value on HLA-A*02:06 molecule is reported as −5.175. On HLA-A*02:01 molecule, the “Binding Experiment Data To A*02:01” value is on record as −4.56.

In the case of NQPGVLIQV [SEQ ID NO: 14], the “Binding Experiment Data To A*02:06” value on HLA-A*02:06 molecule is recorded as −6.417. At HLA-A*02:01 molecule, the “Binding Experiment Data To A*02:01” value was −5.91.

For the sequence SVTNAVITV [SEQ ID NO: 15], the “Binding Experiment Data To A*02:06” value at HLA-A*02:06 molecule is on record as −5.594. Also, the “Binding Experiment Data To A*24:02” value at HLA-A*24:02 molecule is reported as −4.37. In addition, the “Binding Experiment Data To A*02:01” value on HLA-A*02:01 molecule is on record as −4.762.

For the sequence VLVGGSTRI [SEQ ID NO: 5], the “Binding Experiment Data To A*02:06” value at HLA-A*02:06 molecule was −5.07. In addition, the “Binding Experiment Data To A*24:02” value on HLA-A*24:02 molecule was −6.173. For the same sequence, the “Binding Experiment Data To A*02:01” value at HLA-A*02:01 molecule is on record as −4.86.

Take YAFNMKSAV [SEQ ID NO: 13]: at HLA-A*02:06 molecule, the “Binding Experiment Data To A*02:06” value is reported as −5.021. Further, the “Binding Experiment Data To A*02:01” value on HLA-A*02:01 molecule was −5.091.

As to YGAAVQAAI [SEQ ID NO: 7], at HLA-A*02:06 molecule, the “binding to HLA-A*02:06 molecule (in words)” value is on record as “strongly binds” and the “Binding Experiment Data To A*02:06” value was −5.372. Also, the “immunogenicity (in words)” value in experiment [1] was “high immunogenicity”. For the same sequence, on HLA-A*24:02 molecule, the “binding to HLA-A*24:02 molecule (in words)” value is given as “strongly binds” and the “Binding Experiment Data To A*24:02” value is reported as −5.502. On HLA-A*02:01 molecule, the “binding to HLA-A*02:01 molecule (in words)” value was “strongly binds” and the “Binding Experiment Data To A*02:01” value is recorded as −4.904.

The record behind these values is patent US10537626B2, “HSP70-derived peptide, pharmaceutical composition for treating or preventing cancer using same, immunity inducer, and method for producing antigen presenting cell” (Cytlimic Inc., priority 2014, dated 2020).
